Measured values taken from paper PMC8510591, “A comprehensive study of the basic formulation of supersaturated self-nanoemulsifying drug delivery systems (SNEDDS) of albendazolum” (Drug Delivery, 2021).
Converted amounts (≈) assume the structure as drawn.

How the values were obtained:
[1] = ABZ solubility in oils, surfactants and co-surfactants; assay type: physicochemical; conditions: 37 °C, 72 h
Description: The solubility tests were carried out on various oils, surfactants, and co-surfactants. The solubility determination method previously used by Meena et al. ([2012]) was employed. Excess ABZ was added to a volume of 1 g of the tested oil, surfactants, and co-surfactants, and placed in well-stoppered vials. The vials were agitated for 72 h (specified after determination of the equilibrium time beyond which the solubility is stable) at 37 ± 0.05 °C in a constant temperature water bath until equilibrium was attained. Subsequently, the vial's contents were centrifuged at 4000 rpm for 15 min using an ultracentrifuge to separate the insoluble ABZ. After being diluted with the solvent mixture (methanol and 1 N HCl with 7:3), the supernatants were filtered through a cellulose filter ([…]), and the ultraviolet absorbance of the filtrates was measured using the tested oil diluted with the solvent mixture as a blank to be 248 nm using a UV spectrophotometer. The materials used in the study included sunflower oil, Captex 300, PEG 300. PEG 400, soya oil, olive oil, crodamol oil, corn oil, Lauroglycol FCC, Cremophor EL, Solutol HS15, Labrafac lipophile WL1349, Capmul PG8, SPAN 20, Captex 355, Tween 80, Acrysol […], Labrasol, Cremophor RH40, Acrysol K140, Maisine, Sesame oil, Capmul MCM, Capryol PGMC, and propylene glycol. Results from each experiment were expressed as values in μg/mL.

[2] = ABZ saturated solubility in the selected SNEDDS pre-concentrate and in water; assay type: physicochemical
Description: Excess ABZ was added to keep the glass vials containing 1 g of selected optimized SNEDDS preconcentrate (composed of 5% oleic acid, 65% tween 20, 30% PEG) airtight. The suspension was incubated at 30 ± 0.5 °C in a water bath for 72 h to attain equilibrium (Kang et al., [2012]). The suspension was then centrifuged for 15 min at 4000 rpm, after three days using an ultracentrifuge to eliminate the undissolved ABZ. This was then followed by filtration of the supernatant with a 0.22 µm membrane filter. After the desired dilution with solvent (methanol and 1 N HCl with 7:3) was achieved, the ultraviolet absorbance of the filtrate was measured using a UV spectrophotometer at 248 nm. Blanks of plain SNEDDS not containing any drugs diluted in the same ratio were used to cancel interference from the SNEDDS preconcentrate. The experiment was repeated thrice, and the average drug saturated solubility in mg/mL of the selected SNEDDS was calculated.

Which results are given for `CCCSc1ccc2nc(NC(=O)OC)[nH]c2c1` [ABZ, Albendazolum]?
Total solubility ([1]; in Acrysol K140): 46.60 µg g^–1; Total solubility ([1]; in Acrysol K150): 46.18 µg g^–1; Total solubility ([1]; in Capmul MCM): 5.59 µg g^–1; Total solubility ([1]; in Capmul PG8): 139.88 µg g^–1; Total solubility ([1]; in Capryol PGMC): 179.48 µg g^–1; Total solubility ([1]; in Captex 300): 40.23 µg g^–1; Total solubility ([1]; in Captex 355): 99.37 µg g^–1; Total solubility ([1]; in Cremophor EL): 179.76 µg g^–1; Total solubility ([1]; in Cremophor RH40): 46.72 µg g^–1; Total solubility ([1]; in Crodamol oil): 23.61 µg g^–1; Total solubility ([1]; in Labrafac lipophile WL1349): 96.78 µg g^–1; Total solubility ([1]; in Labrasol): 188.13 µg g^–1; Total solubility ([1]; in Lauroglycol FCC): 186.05 µg g^–1; Total solubility ([1]; in Maisine): 18.43 µg g^–1; Total solubility ([1]; in Oleic acid): 734.20 µg g^–1; Total solubility ([1]; in Olive oil): 0.79 µg g^–1; Total solubility ([1]; in PEG 300): 340.45 µg g^–1; Total solubility ([1]; in PEG 600): 498.90 µg g^–1; Total solubility ([1]; in Propylene glycol): 194.47 µg g^–1; Total solubility ([1]; in SPAN 20): 185.79 µg g^–1; Total solubility ([1]; in Sesame oil): 3.73 µg g^–1; Total solubility ([1]; in Solutol HS15): 193.44 µg g^–1; Total solubility ([1]; in Soya oil): 3.62 µg g^–1; Total solubility ([1]; in Sunflower oil): 0.43 µg g^–1; Total solubility ([1]; in Tween 20): 210.45 µg g^–1; Total solubility ([1]; in Tween 80): 172.19 µg g^–1; average increase of solubility, SNEDDS pre-concentrate vs water ([2]; SNEDDS pre-concentrate relative to water): 89 fold; solubility at 72 h ([2]; SNEDDS preconcentrate 5% oleic acid, 65% tween 20, 30% PEG, 30 °C, 72 h): 125 µg/mL (≈ 471 µM); solubility ([2]; water): 1.4 µg/mL (≈ 5.28 µM)
